# Several values for one entry are separate records, joined by “and”; a condition that tells them apart may be missing. Equal values may be shown once.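 Protocol summary: plate cells (96-well), add compound at 5 concentrations, incubate 48 h, interpolate endpoints linearly. At the GI50, growth is halved. TGI: total growth inhibition.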
# Assays:
# Assay in all cases: inhibition of tumour cell growth, NCI panel, 48 h
# MALME-3M melanoma = test system: MALME-3M melanoma
# HCT-15 colon = test system: HCT-15 colon
# HCT-116 colon = test system: HCT-116 colon
# SK-MEL-28 melanoma = test system: SK-MEL-28 melanoma
# 786-0 renal = test system: 786-0 renal
# SN12C renal = test system: SN12C renal
# COLO 205 colon = test system: COLO 205 colon
# A549 NSCLC = test system: A549 NSCLC
# RPMI-8226 leukemia = test system: RPMI-8226 leukemia
# SW-620 colon = test system: SW-620 colon
SMILES,GI50 (MALME-3M melanoma),TGI (MALME-3M melanoma) [µM],GI50 (HCT-15 colon),TGI (HCT-15 colon),GI50 (HCT-116 colon),TGI (HCT-116 colon),GI50 (SK-MEL-28 melanoma),GI50 (786-0 renal),TGI (786-0 renal),GI50 (SN12C renal),TGI (SN12C renal),GI50 (COLO 205 colon),GI50 (A549 NSCLC),TGI (A549 NSCLC),GI50 (RPMI-8226 leukemia),TGI (RPMI-8226 leukemia),GI50 (SW-620 colon),TGI (SW-620 colon) [µM],TGI (SK-MEL-28 melanoma),TGI (COLO 205 colon) [µM]
CC(=O)Nc1cccc(-n2c(=O)n(C3CC3)c(=O)c3c(Nc4ccc(I)cc4F)n(C)c(=O)c(C)c32)c1,< 0.01 µM and 0.00164 µM,< 0.01,0.65 µM and 0.864 µM,> 75.3 µM,< 0.01 µM and 0.00986 µM,12.5 µM and > 10 µM,< 0.01 µM and 0.0018 µM,4.02 µM and > 7.71 µM,> 57.7 µM,2.39 µM and > 2.41 µM,> 100 µM,< 0.01 µM and 0.00125 µM,0.0345 µM and 0.122 µM,> 43.8 µM,5.35 µM and > 4.38 µM,> 100 µM,< 0.01 µM and 0.00622 µM,> 48.8,–,–
C[C@@H]1CC[C@H]2C(COCC3=C(C(F)(F)F)O[C@@H]4O[C@@]5(C)CC[C@H]6[C@H](C)CC[C@@H]3[C@@]46OO5)=C(C(F)(F)F)O[C@@H]3O[C@@]4(C)CC[C@@H]1[C@]32OO4,< 0.01 µM,> 100,< 0.01 µM,> 100 µM,< 0.01 µM,> 100 µM,–,0.182 µM,> 100 µM,0.0439 µM,> 100 µM,< 0.01 µM,0.0126 µM,> 100 µM,< 0.01 µM,> 100 µM,< 0.01 µM,> 100,> 100 µM,0.0835
COc1ccc(NC(=O)Nc2n[nH]c3ccccc23)cc1,> 100 µM,> 100,> 100 µM,> 100 µM,> 100 µM,> 100 µM,> 100 µM,> 100 µM,> 100 µM,> 100 µM,> 100 µM,> 100 µM,> 100 µM,> 100 µM,> 100 µM,> 100 µM,> 100 µM,> 100,> 100 µM,> 100
COc1cc(/C=C\[N+](=O)[O-])ccc1O,1.91 µM,4.91,1.85 µM,6.03 µM,1.83 µM,3.43 µM,1.95 µM,1.81 µM,3.94 µM,2.49 µM,7.74 µM,2.36 µM,3.34 µM,12.7 µM,2.2 µM,6.11 µM,2.1 µM,5.02,4.59 µM,5.74
Cc1cc2nc3c4cc(Cl)ccc4n(CCN(C)C)c3nc2cc1C,1.72 µM,3.33,0.821 µM,4.7 µM,0.7 µM,2.08 µM,2 µM,1.81 µM,4.22 µM,1.61 µM,8.45 µM,1.28 µM,1.51 µM,4.17 µM,1.55 µM,4.12 µM,0.821 µM,2.25,3.53 µM,3.24
Cc1nn(-c2ccc(S(=O)(=O)[O-])cc2)c([O-])c1N=[N+](C)c1ccc(-c2ccc(N=Nc3ccc4c(S(=O)(=O)[O-])cc(S(=O)(=O)[O-])c(N)c4c3[O-])c([O-])c2)cc1[O-].[Cu+2].[Cu+2].[Na+],> 100 µM,> 100,> 100 µM,> 100 µM,> 100 µM,> 100 µM,> 100 µM,> 100 µM,> 100 µM,> 100 µM,> 100 µM,> 100 µM,> 100 µM,> 100 µM,> 100 µM,> 100 µM,> 100 µM,> 100,> 100 µM,> 100
O=C1NC(c2ccc(O)cc2)C2CCC1C2 (stereo unspecified),–,> 100,–,–,–,> 100 µM,–,–,> 100 µM,–,> 100 µM,–,–,> 100 µM,–,> 100 µM,–,> 100,> 100 µM,> 100
O=C(c1cccs1)c1c(C(F)(F)F)n([O-])c2ccccc2[n+]1=O,0.85 µM,2.53,0.432 µM,1.1 µM,0.41 µM,1.07 µM,5.59 µM,0.521 µM,1.45 µM,0.737 µM,1.67 µM,1.66 µM,1.36 µM,3.78 µM,0.613 µM,10.5 µM,1.01 µM,5.94,14.5 µM,9.89
COc1cc2c3c(cccc3c1)C(=O)N(CCN1CCCC1)C2=O,1.88 µM,4.1,2.63 µM,> 100 µM,0.753 µM,> 100 µM,1.84 µM,2.92 µM,> 100 µM,2.41 µM,78.5 µM,1.48 µM,1.91 µM,5.31 µM,–,–,2.04 µM,15.7,3.43 µM,3.28
O=[N+]([O-])[C@@H]1C2C=CC(C2)[C@H]1Cl (stereo partly specified),–,> 100,–,> 100 µM,–,> 100 µM,–,–,> 100 µM,–,> 100 µM,–,–,> 100 µM,–,> 100 µM,–,> 100,> 100 µM,> 100
COc1ccc2cc1Oc1ccc(cc1)C[C@H]1c3cc(c(OC)cc3CCN1C)Oc1c(OC)c(OC)cc3c1[C@H](C2)N(C)CC3,–,–,5.99 µM,16.5 µM and 18.5 µM,3.8 µM,11.1 µM and 14.9 µM and > 100 µM,–,5.1 µM,12.4 µM and 18 µM and > 100 µM,–,–,–,–,–,1.92 µM,20.3 µM and 5.21 µM,–,–,–,–
COc1ccc(/C=C/C=C(/C#N)C(N)=S)cc1,26.9 µM,99.4,25.4 µM,82.8 µM,15.6 µM,31 µM,23.8 µM,33.3 µM,> 100 µM,35.4 µM,> 100 µM,20.9 µM,33.1 µM,> 100 µM,–,–,21.3 µM,61.2,65.7 µM,50.7
C1COCCN1.C1COCCN1.N.N.[Cl-].[Pt+2],> 100 µM,> 100,> 100 µM,> 100 µM,> 100 µM,> 100 µM,> 100 µM,> 100 µM,> 100 µM,> 100 µM,> 100 µM,> 100 µM,> 100 µM,> 100 µM,–,–,> 100 µM,> 100,> 100 µM,> 100
O=C(Nc1cccc(-n2ccc3c(NC(=O)c4ccccc4)nccc32)c1)c1cccc(C(F)(F)F)c1,0.0464 µM,10.4,0.0357 µM,–,0.0364 µM,1.46 µM,0.0558 µM,0.0645 µM,1.9 µM,0.0591 µM,> 59.3 µM,–,0.043 µM,2.61 µM,0.0327 µM,1.17 µM,0.0411 µM,13.4,4.04 µM,–
C=CCSC[C@H](NC(=O)COc1ccccc1)C(=O)NC(C(=O)OCc1ccc([N+](=O)[O-])cc1)=C(C)C,–,> 100,–,> 100 µM,–,> 100 µM,–,–,> 100 µM,–,> 100 µM,–,–,> 100 µM,–,> 100 µM,–,–,> 100 µM,39
COC(=O)C1OC(O[C@H]2CCC3(C)C(CCC4(C)C3CC=C3C5CC(C)(C)CCC5(C(=O)O)CC[C@]34C)C2(C)C)C(O)C(OC2OC(CO)C(O)C(O)C2O)C1O (stereo partly specified),–,–,6.57 µM,13.2 µM,6.39 µM,11.5 µM,10.2 µM,6.36 µM,11.6 µM,6.34 µM,11.4 µM,8.64 µM,7.22 µM,19.2 µM,–,–,7.28 µM,16.7,24.1 µM,25.3
CC(C)(C)OC(=O)n1cc(CNC(=S)Nc2ccccc2)c2ccccc21,–,–,10.9 µM,22.9 µM,15.2 µM,30.1 µM,27.4 µM,17.7 µM,34.5 µM,15.1 µM,28.4 µM,11.3 µM,10.6 µM,33.1 µM,3.27 µM,16.4 µM,13.1 µM,26.2,95.3 µM,23.4
CN(C)/C(=N/C(=S)Nc1ccccc1)SCc1ccccc1,–,> 100,–,> 100 µM,–,–,–,–,> 100 µM,–,> 100 µM,–,–,> 100 µM,–,> 100 µM,–,> 100,> 100 µM,> 100
O=C1CCCN(c2ccccc2)N1,–,> 100,–,> 100 µM,–,> 100 µM,–,–,> 100 µM,–,> 100 µM,–,–,> 100 µM,–,> 100 µM,–,> 100,> 100 µM,–
COC(=O)C(C#N)=C1c2ccccc2Oc2ccccc21,–,> 100,–,> 100 µM,–,–,–,–,> 100 µM,–,> 100 µM,–,–,> 100 µM,–,49.3 µM,–,> 100,> 100 µM,> 100
O=c1cc(-c2cccc(F)c2)[nH]c2cc3c(cc12)OCO3,–,> 72,0.29 µM,12.1 µM and > 24.9 µM,0.22 µM,2.91 µM and 15.7 µM,0.359 µM,0.346 µM,75 µM and 17.7 µM,0.411 µM,75 µM and 23.3 µM,–,0.498 µM,21.9 µM and 40.9 µM,–,–,–,> 100,75 µM and > 72.4 µM,0.364
Cc1ccccc1C(C#N)C(=O)C(=O)Nc1nc([N+](=O)[O-])cs1 (stereo unspecified),–,> 100,–,> 100 µM,–,> 100 µM,–,–,> 100 µM,–,> 100 µM,–,–,> 100 µM,–,–,–,> 100,> 100 µM,–
O=C(CCN1CCN(c2cnc3ccccc3n2)CC1)c1csc2ccccc12,24.9 µM,69.1,62.6 µM,> 100 µM,36.2 µM,> 100 µM,20 µM,28.4 µM,79.5 µM,79.6 µM,> 100 µM,24.9 µM,–,–,9.4 µM,> 100 µM,20.9 µM,45.4,42.7 µM,59
O=C1/C(=C/c2ccc(F)cc2)CCOc2ccc([N+](=O)[O-])cc21,2.27 µM,5.79,41.6 µM,> 100 µM,1.5 µM,3.01 µM,–,1.8 µM,3.5 µM,6.97 µM,21 µM,18.8 µM,8.47 µM,23.7 µM,0.862 µM,3.14 µM,1.35 µM,4.04,–,35
O=C(c1ccc2ccccc2c1)c1c(C(F)(F)F)n([O-])c2cc(Cl)c(Cl)cc2[n+]1=O,1.58 µM,3,1.56 µM,2.97 µM,1.58 µM,2.92 µM,1.74 µM,1.69 µM,3.06 µM,1.73 µM,3.1 µM,–,1.63 µM,2.98 µM,1.58 µM,3.85 µM,1.63 µM,2.98,3.57 µM,–
CCOC(=O)C1(CC)CCCCC(=O)N1 (stereo unspecified),–,> 100,–,> 100 µM,–,–,–,–,> 100 µM,–,> 100 µM,–,–,> 100 µM,–,–,–,> 100,> 100 µM,> 100
N#Cc1c(-c2cccs2)c2c(=S)[nH]c(=S)[nH]c2[nH]c1=S,–,–,37 µM,> 100 µM,49.5 µM,> 100 µM,22.4 µM,36.4 µM,> 100 µM,43 µM,> 100 µM,28.8 µM,28.9 µM,> 100 µM,27.4 µM,73.6 µM,32.8 µM,81,> 100 µM,> 100
COC(=O)C(c1[nH]nc2ccccc12)C(C(=O)OC)c1[nH]nc2ccccc12 (stereo unspecified),–,> 100,–,> 100 µM,–,> 100 µM,–,–,> 100 µM,–,> 100 µM,–,–,> 100 µM,–,50.4 µM,–,33.7,> 100 µM,–
COc1ccc(-c2cc(-c3cc(Cl)ccc3Cl)nc3[nH]c(-c4cc(F)c(Cl)cc4Cl)cc(=O)c23)cc1,–,–,17.1 µM,56.1 µM,9.69 µM,24.7 µM,> 100 µM,20.4 µM,52 µM,24.5 µM,76.8 µM,43.6 µM,14.2 µM,74.7 µM,25 µM,69.1 µM,20 µM,> 100,> 100 µM,> 100
CCC(C)C1NC(=O)c2nc(oc2-c2ccccc2)-c2csc(n2)-c2csc(n2)-c2nc(oc2C)-c2coc(n2)CNC(=O)C(C(C)CC)NC1=O (stereo unspecified),–,–,0.0361 µM,0.18 µM,–,0.0335 µM,–,0.0499 µM,0.172 µM,–,–,–,–,–,–,–,–,0.0324,–,–

# Reference: PubChem BioAssay (NCI)
